From patent publication US6342187B1, “Process and apparatus for dry sterilization of medical devices and materials” (priority 1987, dated 2002)
Several values for one entry are separate records, joined by “and”; a condition that tells them apart may be missing. Identical values can stand only once. Like-named read-outs stand apart in the source and are kept apart here.

Columns and labels:
Format in all cases: cell-based
[1] = tested on: Bacillus Subtilis var Niger; details: for vials with total kill, of ten Attest vials: Pyrex chamber, cooled cylinder, 0.280-0.300 torr, 38-57° C., moist = H2O 300 ppm
Excerpt: However, for each of the examples the general technique involved was one in which the material to be sterilized was placed directly in the reaction chamber, or placed within a Tyvek/polyethylene pouch which itself was sealed and placed in a wire basket within the reaction chamber.
The materials used for verification of sterilization effectiveness were “Attest” vials obtained from 3M Company, or “Spordex” bacterial test strips obtained from the American Sterilizer Company, each vial or “Spordex” envelope contained a bacterial strip having an original spore population of not less than 1×10^6 Bacillus Subtilis var Niger per strip, but more commonly in the range 2.2-4.0×10^6 spores/strip. The strips contained the permeable plastic vials were not brought into contact with the culture solution contained in any of the vials prior to sterilization. The vials were placed within the Tyvek/polyethylene bags during the plasma sterilization, alongside devices or instruments to be sterilized. The bags were always sealed during the sterilization process.
For each example the chamber was first evacuated to an initial low pressure level after the materials (in the bags or pouches) were placed within it. The chamber was thereafter filled with the appropriate gas prior to striking the discharge, and the gas continued to flow through the chamber at a controlled rate to establish a steady state sterilization pressure. The discharge was initiated by the application of RF or microwave power as indicated. The discharge was maintained for a controlled time period at the end of which the power was turned off, the chamber was first evacuated, then backfilled with air through a bacteria retentive filter, and later opened and the samples removed. The temperature within the chamber during the process was maintained at less than 70° C., and more typically around 25° C. to 65° C., as sensed by an iron-constantan, type “J”, thermocouple circuitry and monitored by an analog temperature meter.
Subsequent to the tests, the spore strips in the “Attest” vials where brought into contact with the self-contained culture solution and incubated for 72 hr, at the end of which period microorganism growth or no growth would be indicated by the resultant color of the culture solution. Alternatively, the spore strips were submitted to an independent testing laboratory which performed a total plate count on the sample strips using a procedure in which 100 milliliters of sterile deionized water were added to each strip in a sterile whirl-pak bag. The bag was then placed in a lab blender for 10 minutes. One 10 milliliter aliquot of sample, a duplicate one milliliter sample, and two consecutive 10^−1 dilutions were plated using Tryptic Soy Agar. The plates were then incubated at 30-35° C. for 72 hours. After incubation, the plates were read and recorded, and the results calculated on a Colony Forming Unit (CFU) basis.

[2] = tested on: biological indicator organism; assay: Example 21 designed experiments, modified AAMI EO test packs, log reduction (organism not specified); details: Example 21, mean over designed experiments; both precursors vaporized at 74° C.; 40 kHz, 5 kW
Method: AAMI EO Test Packs: Modified AAMI Standard EO packs were prepared in which the BI strip was removed from its glassine wrap before processing. Three strips were placed in each syringe, and the syringe was closed at its large end with the standard rubber stopper. A second syringe was prepared containing one MDT Biosign CLBI (results reported as fractional negative). The syringes were placed adjacent to one another and were wrapped in a huckabuck towel per the AAMI EO Test Pack standard. The entire assembly was placed in a Baxter ‘Tower Dual-Peel’ 7.5″×13″ paper-plastic peel pouch, which was subsequently heat sealed.
Statistical Design of Experiments: This example is based upon both Taguchi and Greco-Latin Square experimental designs in accordance with standard statistical design of experiment techniques [CSS:Statistica, StatSoft, Tulsa, Okla. ]. These experimental designs permitted variation of four parameters over four discrete levels (Greco-Latin Square) or five parameters over four discrete levels (Taguchi L′16 design). The resultant data, reported as log reduction, is analyzed to provide mean values for each of the parameters at each parameter level. Also provided are ANOVA and correlation results (for reduction vs. exposure time), which evaluate the statistical validity of the data. […]

Bstm = assay: Example 22 direct comparison of sterilant precursors, AAMI standard EO test packs; details: Example 22: 45 min plasma, 40 kHz, 5 kW, 600 microns; 30 min preconditioning; base pressure 100 microns; Bstm 10^6 spores; peracetic acid vaporized at 60° C., hydrogen peroxide at 74° C.
Method: A direct comparison of 15% peracetic acid and 70% hydrogen peroxide sterilant precursors was made by exposing AAMI standard EO test packs for 45 minutes to plasma induced by 40 kHz excitation frequency with 5 kW RF power. […] No glassine was used on the BI strips (Bstm, 10^6 spore population, MDT lot 601).

O=O [O2, Oxygen]
Percent Kill [1]: 99.9999% | Percent Kill (%) [1]: 77.6923% and 99.9999% | Resultant Microbial Count (CFUs) [1]: 5.8 × 10^5 CFUs and <10 CFUs | Resultant microbial count [1]: < 10 CFU | Percent Kill ([1]; Example 2: metal chamber, cooled perforated cylinder (FIG. 4), 20 scc/min, 0.30 torr, 0.050 W/cm^3, 60 min, 32° C.): Total kill | Percent Kill ([1]; Example 4: metal chamber, two uncooled perforated cylinders (FIG. 6), 20 scc/min, 0.30 torr, 0.050 W/cm^3, 60 min, 76° C.): Total kill | Percent Kill ([1]; Example 8: Pyrex chamber, cooled perforated cylinder (FIG. 1), 25 scc/min, 0.30 torr, 0.015 W/cm^3, 30 min, 26° C.): Total kill | Percent Kill ([1]; Example 9: Pyrex chamber, uncooled perforated cylinder (FIG. 1), 25 scc/min, 0.30 torr, 0.015 W/cm^3, 30 min, 83° C.): Total kill | Percent Kill ([1]; Example 12: Pyrex chamber, two uncooled perforated cylinders, 70 scc/min, 0.275 torr, 0.016 W/cc, 45 min, 92° C., AAMI standard sterilization test pack): Total Kill | Percent Kill ([1]; Example 13: Pyrex chamber, two cooled perforated cylinders, conditions as Example 12, 54° C., AAMI test pack): Total Kill | Percent Kill ([1]; Example 14: Pyrex chamber, uncooled perforated cylinder, 70 scc/min, 0.275 torr, 0.014 W/cc, 30 min, 85° C.): Total Kill | Percent Kill ([1]; Example 15: Pyrex chamber, cooled perforated cylinder (FIG. 1), conditions as Example 14, 47° C.): Total Kill | Percent Kill ([1]; Example 16: Pyrex chamber, cooled perforated cylinder (FIG. 1), conditions as Example 14, exposure 2¼ hr, 51° C.): Total Kill | Percent Kill ([1]; Example 19: spore strip in middle of 24-inch PVC or silicone rubber tubing, in sealed pouch, 100 scc/min, 0.280 torr, 0.020 W/cc, 70-105 min, 50° C.): Total Kill

N#N [Dry N2, Nitrogen]
vials with total kill, of ten Attest vials ([1]; Example 18: exposure 30 min, 100 scc/min, 0.020 W/cc): 0 vials - total kill | vials with total kill, of ten Attest vials ([1]; Example 18: exposure 45 min, 100 scc/min, 0.020 W/cc): 0 vials - total kill | vials with total kill, of ten Attest vials ([1]; Example 18: exposure 60 min, 100 scc/min, 0.020 W/cc): 1 vial - total kill vials | vials with total kill, of ten Attest vials ([1]; Example 18: exposure 75 min, 100 scc/min, 0.020 W/cc): 2 vials - total kill

OO [70% hydrogen peroxide, hydrogen peroxide]
mean log reduction [2]: 3.1 log reduction | mean log reduction (Bstm): 5.43

CC(=O)OO [15% peracetic acid, peracetic acid]
mean log reduction [2]: 2.8 log reduction | mean log reduction (Bstm): 5.57
